{"source": "patent US20010006794A1", "about": "“SCREENING FOR MODULATORS OF BIOMOLECULES” (priority 1995, published 2001)", "key": {"[1]": {"system": "Salmonella typhimurium wild type", "type": "cell-based", "method": "Preliminary characterization of the utilization of large numbers of carbon sources can be carried out using manual or automated taxonomic screening devices, such as the Biolog MT, ES, GN or GP Microplate™. Alternatively, this can be performed using commercially available components. […] Briefly, strains were swabbed onto TSA plates and grown at a permissive temperature of 30° C. for 6 hours to provide an inoculum. The inoculum (MacFarland standard ˜1 in 0.89% sterile saline solution) was prepared as per Biolog “Instructions for Use” handbook, with the exception that leucine was added to correct for mutants housed in strains which were in a leucine-deficient background. Inoculum was added to Biolog GN or ES plates and incubated at the semipermissive temperature of 35° C. overnight (˜21 hr). Carbon source utilization is read colorimetrically in a microplate reader at 600 nm. Substrates that are not used similarly by wild-type and mutant are identified. […] Typically, these steps were performed using Biolog MT plates or by using a redox indicator (such as tetrazolium violet, 0.0001%) in a minimal medium with a sole carbon source (substrate being tested), supplemented with a small amount of tryptone (0.06%) or proteose peptone (0.2%). It was possible to do this in 96-well microtiter plate format, which will be adaptable to high throughput or multichannel screening."}, "[2]": {"system": "Salmonella typhimurium temperature sensitive mutant gyrA212 (strain 7533)", "type": "cell-based", "description": "A Salmonella typhimurium parent strain 7389 was used to form a collection of temperature sensitive mutants. […] Complementation of the mutant phenotype was done. In the case of the three mutants described in the data of this figure (gyrA202, gyrA208, gyrA212) the complemented mutants were identified to be in the A subunit of the bacterial DNA gyrase enzyme. Each mutant was altered in a different portion (see number of mutant) of the A subunit. […] The data are expressed as fold increases in susceptibility. A four-fold increase in susceptibility is the minimum change to be considered significant in this example.\nReferring to FIG. 1, the experiments were essentially by the methods outlined by the National Committee for Clinical Laboratory Standards (NCCLS). Bacteria were grown in Mueller-Hinton (MH) broth with agitation at 30° C.\nThe antibiotic dilution ranges used were:\nNovobiocin: Range 128-0 μg/ml. Coumermycin A1: Range 128-0 μg/ml. […] Norfloxacin: Range 8-0 μg/ml. Mitomycin C: Range 8-0 μg/ml Phenylmercuric acetate: Range 32-0 μg/ml. 4-Nitroquinoline Oxide: Range 32-0 μM Rifampicin: Range 128-0 μg/ml. Gentamicin: Range 32-0 μg/ml. Streptomycin: Range 128-0 μg/ml. Cefotaxime: Range 8-0 μg/ml. Ampicillin: Range 32-0 μg/ml. Phosphonomycin (or fosfomycin): Range 128-0 μg/ml. […]"}, "[3]": {"conditions": "wild type with sub-MIC levels of antibiotic"}, "[4]": {"conditions": "wild type with sub-MIC levels of antibiotic, Biolog GN plates, 35° C."}}}
{"smiles": "Cn1nnnc1SCC1=C(C(=O)O)N2C(=O)[C@@H](NC(=O)[C@H](O)c3ccccc3)[C@H]2SC1", "note": "[cefamandole]", "values": [{"measurement": "utilization of D-alanine or D-serine as carbon source markers", "setting": "[1]; wild type strain, sub-MICs of cell wall synthesis inhibitor", "value": "affected"}, {"measurement": "overlap of carbon source utilization phenotype with the gyraseA/ciprofloxacin induced phenotype", "setting": "[1]; [3]", "value": 40, "unit": "%"}]}
{"smiles": "O=C(N[C@H](CO)[C@H](O)c1ccc([N+](=O)[O-])cc1)C(Cl)Cl", "note": "[chloramphenicol]", "values": [{"measurement": "overlap of carbon source utilization phenotype with the gyraseA/ciprofloxacin induced phenotype", "setting": "[1]; [3]", "value": 40, "unit": "%"}]}
{"smiles": "O=C(O)c1cn(C2CC2)c2cc(N3CCNCC3)c(F)cc2c1=O", "note": "[ciprofloxacin]", "values": [{"measurement": "carbon source utilization phenotype compared with one of the gyraseA mutant alleles", "setting": "[1]; [4]", "value": "reproduces the phenotype of one of the mutant alleles perfectly"}, {"measurement": "overlap of carbon source utilization phenotype with the other two gyraseA mutant alleles", "setting": "[1]; [4]", "value": "46-71%"}]}
{"smiles": "CCn1cc(C(=O)O)c(=O)c2cc(F)c(N3CCNCC3)cc21", "note": "[norfloxacin]", "values": [{"measurement": "fold increase in susceptibility", "setting": "[2]", "value": 8, "unit": "fold"}]}
{"smiles": "CO[C@@H]1[C@@H](OC(N)=O)[C@@H](O)[C@H](Oc2ccc3c(O)c(NC(=O)c4ccc(O)c(CC=C(C)C)c4)c(=O)oc3c2C)OC1(C)C", "note": "[novobiocin]", "values": [{"measurement": "carbon source utilization phenotype compared with gyraseA mutants and the ciprofloxacin induced phenotype", "setting": "[1]; [3]", "value": "very similar phenotype"}]}
